We go through three molecules from patent US7109182B2, “Synthetic oligomannosides, preparation and uses thereof” (Centre Hospitalier Regional Universitaire (CHRU), priority 1999, dated 2006).

Experiment [1] deals with C. albicans strain 10261 (4277). Kind of experiment: Gastrointestinal colonization of neonatal mice by C. albicans, prophylactic synthetic tetramannosides. It is filed as in vivo, mouse. The conditions noted are these: for effect on gastrointestinal colonization by C. albicans (in words) / reduction in intestinal colonization (in words): mice; for effect on gastrointestinal colonization by C. albicans (in words): administration prior to inoculation, versus control; for reduction in intestinal colonization (in words): dose of 150 μg by gavage prior to inoculation; for degree of gastrointestinal colonization, median of CFUs: young mice, CFU/dropping 7 days after the inoculation. The method, then:
The mothers and their litters (10 to 15 baby mice/litter) were received on the 4th day of life (line CD-1® (Crl: CD-1® (ICR) BR, Charles River, Saint Aubin les Elbeuf, France). The animals were inoculated on the 6th day of life. There was always a separation from the mother for 3 hours prior to gavage and a one hour interval after inoculation.
Two strains of C. albicans were used, strain 4276 which expresses a small amount of β-1,2 oligomannosides at its surface and strain 4277 which expresses a large amount. Prior to each use, the strains were re-inoculated on Sabouraud-chloramphenicol (SC) agar from a culture stored at −80° C. in PBS-40% glycerol. After incubation for 24 hours at 35° C., the yeasts were washed 3 time in sterile physiological water (NaCl 0.9%, water φ) and the suspension was adjusted to 2×10^9/ml. The viability of the inoculum was verified for each experiment by sowing suitable dilutions of the yeast suspensions on SC agar in Petri dishes.
[…] The sugars were diluted in sterile water to obtain the desired concentration (see results) in a volume of 50 μl. Two independent experiments were carried out. In the first, 4 litters infected with strain 4277 were compared after administration, respectively, of water (litter 1), of 50 μg pf αMan (litter 2), 150 μg of βMan (litter 3) or 150 μg of 0αMan (litter 4). In the second experiment, four litters were infected either with strain 4276 (litters 1 and 2) or with strain 4277 (litters 3 and 4) after treatment with water (litters 1 and 3) or 50 μg of bMan (litters 2 and 4).
• Mortality: the cages were monitored once daily and the number of mice was recorded. • Gastrointestinal colonization: sequentially, beginning on day 7 after the inoculation, one dropping was collected from each mouse, ground in 100 μl of sterile water with a small piston adapted to function in 1.5-ml Eppendorf tubes and the total volume was inoculated on SC agar in a Petri dish. The number of colony forming units (CFU) was counted after 24 hours of incubation at 30° C. When the CFU density prevented counting, a score was attributed on the basis of the appearance of the culture so as to allow statistical comparisons: 2 or 1000 CFU, 3 or 10,000 CFU, 4 or 100,000 CFU. 7) Statistical Analysis
The gastrointestinal colonizations according to the infecting strain and according to the treatment preceding the inoculation were compared using a nonparametric test (Mann-Whitney or Kruskall-Wallis test, depending on the number of groups) using the program Statview 4.5 for Macintosh. The percentages of positive cultures or deaths on day 1 were compared with the Fisher exact test.

Another experiment relates to C. albicans (SA-40). The experiment is described as follows: Experimental model of vaginal candidiasis in the rat, inhibition of colonization. In kind it is in vivo. As to conditions: for inhibition of colonization/infection (in words): administration 1 h, α control even at the maximum dose; for inhibition of colonization/infection (in words) / level of colonization (colony-forming units in vaginal secretions): 24 h and 48 h after inoculation; for level of colonization (colony-forming units in vaginal secretions): rat. Here is the method: Ovarectomized female rats were maintained in pseudo-estrus by subcutaneous injection of 0.5 mg of estradiol benzoate every 2 days during the duration of the experiments. The animals were inoculated with 0.1 ml of a 10^7 yeast solution. The kinetics of the infection were monitored by determining the number of yeasts present in the vaginal secretions. 1 μl of secretion was collected with a calibrated plastic loop and spread over a dish of Sabouraud's agar plus antibiotics; the colony-forming units were counted after 48 hours of incubation at 28° C. […] 1: the β-1,2 mannotetraose (100 μg) was administered 1 hour before inoculation. 2: 1 hour after inoculation. 3: 1 h, 24 h and 48 h after inoculation. We used a model of vaginal candidiasis recognized by the international community and with which the most pertinent animal experiments to date have been performed. The results obtained in two experimental series were in perfect agreement. […] Even at the maximum dose, the α-1,2 oligomannosides administered in the same manner as control has no effect as shown in Table 3 below.

Experiment [2] deals with antibodies of pool of serum from patients with Crohn's disease. The experiment is described as follows: ELISA reactivity of pool of patient serums (ASCA test) with plates sensitized with synthetic antigen. In kind it is binding. The conditions noted are these: FIG. 9, pool of patient serums used to standardize the ASCA test. The text has this:
It has been shown that one of the major epitopes against which was directed the ASCA response of patients with Crohn's diseases was a mannotetraose of formula Man α-1,3 Man α-1,2 Man α-1,2 Man (Sendid, B. et al., 1996, Clin. Diagn. Lab. Immunol. 3: 219–26; Young, M. et al., 1998, Glycoconj. J. 15: 815–22).
Background: ELISA stands for enzyme-linked immunosorbent assay.

A further experiment has as its system Factor 34. The experiment is described as follows: ELISA antigenic reactivity with antigenic factor 34. As to conditions: FIG. 8. It is filed as binding, rabbit. Here is the method:
Monospecific polyclonal antibodies from Iatron were prepared by immunization of rabbits with whole yeasts then adsorbed by yeasts of heterologous species. Used as a battery, they enable identification by agglutination of the principal species of Candida implicated in human pathology. Each of these “factors” reacts with specific epitopes which were identified by any entire series of immunochemical studies performed in Japan. The results of these studies were summarized in the publication by S. Suzuki (Suzuki, S. et al., 1997, Curr. Top. Med. Mycol. 8: 57–70).
According to the immunochemical studies performed on the Iatron serums, this structure should react with Factor 34 (Suzuki, S. et al., 1997, Curr. Top. Med. 8: 57–70).

[3] abbreviates: strain 10261, 150 μg by gavage prior to inoculation.

As to `OC[C@H]1O[C@@H](O[C@@H]2[C@H](O[C@@H]3[C@H](O[C@@H]4C(O)O[C@H](CO)[C@@H](O)[C@@H]4O)O[C@H](CO)[C@@H](O)[C@@H]3O)O[C@H](CO)[C@@H](O)[C@@H]2O)[C@@H](O)[C@@H](O)[C@@H]1O` (stereo partly drawn) [βM 4, D-Man β(1-2) D-Man β(1-2) D-Man β(1-2) D-Man], the “effect on gastrointestinal colonization by C. albicans (in words)” value in experiment [1] was “very protective”; in experiment [1] (listed as synthetic β-1,2 tetramannosides) it was “drastic, dose-dependent reduction in the number of yeasts found in the stools”; in experiment [1] (listed as βMan), “significantly decreased the degree of colonization”. Also, the “reduction in intestinal colonization (in words)” value in experiment [1] was “almost total reduction”. The “degree of gastrointestinal colonization, median of CFUs” value in experiment [1] (strain 10261, 50 μg by gavage prior to inoculation) worked out at 48.5 CFU; in experiment [1] (setting [3]) it was 5 CFU. Further, the “inhibition of colonization/infection (in words)” value is on record as “reduced colonization by C. albicans in a very significant manner” with C. albicans (SA-40) (rat vaginal candidiasis) and “dose-dependent relation of inhibition of colonization/infection” in the experiment with C. albicans (SA-40) (rat vaginal candidiasis, listed as synthetic β-1,2 oligomannosides). The “carrier state of C. albicans (in words)” value in the experiment with C. albicans (SA-40) (rat vaginal candidiasis, at the end of the experiments) is on record as “no longer be carriers of C. albicans”. Also, the “change of level of colonization (in words)” value with C. albicans (SA-40) (rat vaginal candidiasis, beginning on the first day of administration) is on record as “decreased by close to half”. Further, the “level of colonization (colony-forming units in vaginal secretions)” value with C. albicans (SA-40) (SA-40, 50 γ 1 h, day 0) is on record as more than 100; with C. albicans (SA-40) (SA-40, 50 γ 1 h, day 1), more than 100; in the experiment on C. albicans (SA-40) (SA-40, 50 γ 1 h, day 2) it was 88 ± 6; in the experiment with C. albicans (SA-40) (SA-40, 50 γ 1 h, day 5), 62 ± 4; with C. albicans (SA-40) (SA-40, 50 γ 1 h, day 7) it was 57 ± 3; in the experiment with C. albicans (SA-40) (SA-40, 50 γ 1 h, day 14) it was 23 ± 5. Besides, the “level of colonization (colony-forming units in vaginal secretions)” value is on record as less than 1 with C. albicans (SA-40) (SA-40, 50 γ 1 h, day 21); more than 100 with C. albicans (SA-40) (SA-40, 100 γ 1 h, day 0); 87 ± 6 with C. albicans (SA-40) (SA-40, 100 γ 1 h, day 1); 83 ± 8 with C. albicans (SA-40) (SA-40, 100 γ 1 h, day 2); 40 ± 6 in the experiment with C. albicans (SA-40) (SA-40, 100 γ 1 h, day 5); 54 ± 8 in the experiment on C. albicans (SA-40) (SA-40, 100 γ 1 h, day 7). The “level of colonization (colony-forming units in vaginal secretions)” value was 45 ± 14 in the experiment on C. albicans (SA-40) (SA-40, 100 γ 1 h, day 14); less than 1 with C. albicans (SA-40) (SA-40, 100 γ 1 h, day 21); more than 100 in the experiment with C. albicans (SA-40) (SA-40, 150 γ 1 h, day 0); 62 ± 7 with C. albicans (SA-40) (SA-40, 150 γ 1 h, day 1); 54 ± 0 in the experiment on C. albicans (SA-40) (SA-40, 150 γ 1 h, day 2); 27 ± 3 in the experiment with C. albicans (SA-40) (SA-40, 150 γ 1 h, day 5). For the same molecule, the “level of colonization (colony-forming units in vaginal secretions)” value is given as 28 ± 4 with C. albicans (SA-40) (SA-40, 150 γ 1 h, day 7); 5.6 ± 3 in the experiment on C. albicans (SA-40) (SA-40, 150 γ 1 h, day 14); less than 1 with C. albicans (SA-40) (SA-40, 150 γ 1 h, day 21).

On to “8-carboxyloctyl 2-O-(2-O-(3-O-α-D-mannopyranosyl)-α-D-mannopyranosyl)-α-D-mannopyranosyl)-α-D-mannopyranoside [III]”, for which the “fixation of patient antibodies (in words)” value in experiment [2] is listed as “affix according to a reaction dependent on the dose of synthetic antigen”. The “antigenic reactivity with Factor 34 (in words)” value with Factor 34 is given as “results observed correspond to the anticipated results”.

As to `OC[C@H]1O[C@H](O[C@@H]2[C@@H](O[C@@H]3[C@@H](O[C@@H]4C(O)O[C@H](CO)[C@@H](O)[C@@H]4O)O[C@H](CO)[C@@H](O)[C@@H]3O)O[C@H](CO)[C@@H](O)[C@@H]2O)[C@@H](O)[C@@H](O)[C@@H]1O` (stereo partly drawn) [αM A N, D-Man α(1-2) D-Man α(1-2) D-Man α(1-2) D-Man], the “effect on gastrointestinal colonization by C. albicans (in words)” value in experiment [1] is “did not modify the degree of gastrointestinal colonization”. Besides, the “reduction in intestinal colonization (in words)” value in experiment [1] is “not seen”. Moreover, the “degree of gastrointestinal colonization, median of CFUs” value in experiment [1] (setting [3]) stood at 258 CFU. Moreover, the “inhibition of colonization/infection (in words)” value in the experiment on C. albicans (SA-40) (rat vaginal candidiasis) was “no effect”. Moreover, the “level of colonization (colony-forming units in vaginal secretions)” value with C. albicans (SA-40) (SA-40, 50 γ 1 h, day 0) is listed as more than 100; in the experiment with C. albicans (SA-40) (SA-40, 50 γ 1 h, day 1), more than 100; in the experiment with C. albicans (SA-40) (SA-40, 50 γ 1 h, day 2), 95 ± 2; with C. albicans (SA-40) (SA-40, 50 γ 1 h, day 5), 86 ± 4; with C. albicans (SA-40) (SA-40, 50 γ 1 h, day 7), 69 ± 6; with C. albicans (SA-40) (SA-40, 50 γ 1 h, day 14), 48 ± 4. Moreover, the “level of colonization (colony-forming units in vaginal secretions)” value is 21 ± 4 with C. albicans (SA-40) (SA-40, 50 γ 1 h, day 21); more than 100 in the experiment with C. albicans (SA-40) (SA-40, 100 γ 1 h, day 0); more than 100 in the experiment on C. albicans (SA-40) (SA-40, 100 γ 1 h, day 1); 93 ± 3 in the experiment with C. albicans (SA-40) (SA-40, 100 γ 1 h, day 2); 83 ± 5 in the experiment on C. albicans (SA-40) (SA-40, 100 γ 1 h, day 5); 71 ± 6 in the experiment with C. albicans (SA-40) (SA-40, 100 γ 1 h, day 7). In addition, the “level of colonization (colony-forming units in vaginal secretions)” value with C. albicans (SA-40) (SA-40, 100 γ 1 h, day 14) was 495; in the experiment with C. albicans (SA-40) (SA-40, 100 γ 1 h, day 21) it was 22.4 ± 3.4.
